Results on 14 compounds are retold here after US4372953A, “Tetrazole derivatives, and anti-ulcer composition containing the same” (Otsuka Pharmaceutical Company, Limited, priority 1980, dated 1983).

Molecules are shown by their SMILES. Where two headings read alike, the source gives them in different places. Where only a bound is given, the exact number is not on record here.

Assay [1] deals with gastric juice secretion. As to the kind of experiment: Shay rat pylorus ligation method (gastric juice secretion-inhibiting activity). It is filed as in vivo, male Wistar rats. Conditions: 100 mg/kg, duodenal route, 4 hours after ligation; for inhibition in vivo at 100 mg/kg: Rattus norvegicus, 4 h. The method, then: The pharmacological activities of the compounds (1) were tested by a Shay rat pylorus ligation method (cf. H. Shay et al: Gastroenterol., Vol. 5, page 43, 1945) which is the most popular method for testing of gastric juice secretion-inhibiting activity. The test was carried out by using male Wistar rats, weighing about 170 g and fasting for 24 hours.
Test compounds were administered 30 minutes before the pylorus ligation in a dose of 100 mg/kg in subcutaneous route in case of test compounds 37, 38, 50, 51 and 52, in a dose of 200 mg/kg in subcutaneous route in case of test compounds 105 and 106 and in dose of 100 mg/kg in duodenal route in case of other test compounds, and the volume, total acidity and pepsin activity of the gastric juice were measured 4 hours after the ligation. As a control, a saline solution was administered instead of the test compound. The inhibitory ratio (%) of the test compounds were calculated when the inhibitory activities of the control were counted as zero (0).
(§1) In the table, the inhibitory ratio (%) was evaluated as follows: […]

The subject of assay [2] is stress ulcer. The assay can be described thus: Stress ulcer (restraint and water immersion). The assay is classed as in vivo, male Wistar rats. Conditions: Rattus norvegicus, po, 7 h, read-out: Inhibitory ratio of stress ulcer; for inhibition in vivo: concentration of 1×10^-3 mole. On the procedure: After male Wistar rats weighing about 170 g was fasted for 24 hours, the rats were restrained in a stress cage and dipped in water bath at 23° C. till chest of the animals. After 7 hours, the rats were killed and the stomach was isolated. Into the isolated stomach 10% formalin (8 ml) was poured and settled. The stomach was cut open at the greater curvature, and the length of each ulcer on the membrane was measured. Sum of the length of all ulcers was shown as ulcer index (UI). The test compound was orally administered to the rats before restraint in a stress cage in a dose of 300 mg/kg in the form of 0.5% CMC suspension in case of test compounds 3, 4, 6, 15 and 27 and in a concentration of 1×10^-3 mole in case of other test compounds. As a control, only the solvent (CMC solution) was administered likewise. The inhibitory ratio (%) of stress ulcer of the test compounds was calculated by the following equation: [formula]
as §1

Setting [3] is: read-out: Inhibitory ratio, volume of gastric juice.
[4] abbreviates: read-out: Inhibitory ratio, pepsin activity.
The mark [5] stands for this setting: read-out: Inhibitory ratio, total acidity.

With `Cn1nnnc1SCCSc1ccccn1` [Test compound 31, 1-Methyl-5-[2-(2-pyridyl)thioethyl]thio-1,2,3,4-tetrazole], the inhibition in vivo at 100 mg/kg in assay [1] (setting [3]) was greater than 50%. Further, the inhibition in vivo in assay [2] was greater than 60%.
For `Cn1nnnc1SCCCC(=O)c1ccco1` [Test compound 55, 1-Methyl-5-[3-(2-furoyl)propyl]thio-1,2,3,4-tetrazole], the figures for the inhibition in vivo at 100 mg/kg in assay [1] (setting [4]), in assay [1] (setting [5]) and in assay [1] (setting [3]) were 10 to 50%, greater than 50% and greater than 50%, respectively. In assay [2], the inhibition in vivo was in the range of 30 to 60%.
Take `Br.CNC(=N)SCCCCSc1nnnn1C` [Test compound 27, 1-Methyl-2-[4-(1-methyl-1,2,3,4-tetrazol-5-yl)thiobutyl]isothiourea hydrobromide]: the “Inhibitory ratio, volume of gastric juice” value in assay [1] is reported as “+ +”. Also, the inhibition in vivo at 300 mg/kg in assay [2] (300 mg/kg, 0.5% CMC suspension) is greater than 60%.
As for `Cn1nnnc1SCCCCCCSc1ccccn1` [Test compound 33, 1-Methyl-5-[6-(2-pyridyl)thiohexyl]thio-1,2,3,4-tetrazole], in assay [1] (setting [3]), the inhibition in vivo at 100 mg/kg lay within 10 to 50%. In addition, the inhibition in vivo in assay [2] is greater than 60%.
As to `Cn1nnnc1SCCCSCc1csc(N)n1` [Test compound 17, 1-Methyl-5-[3-(2-amino-4-thiazolyl)methylthiopropyl]thio-1,2,3,4-tetrazole], the inhibition in vivo at 100 mg/kg in assay [1] (setting [3]) lay within 10 to 50%. Also, the inhibition in vivo in assay [2] is greater than 60%.
For `Cn1nnnc1SCCCC[S+]([O-])c1nnnn1C` (stereo not drawn) [Test compound 46, 4-(1-Methyl-1,2,3,4-tetrazol-5-yl)thiobutyl 1-methyl-1,2,3,4-tetrazol-5-yl sulfoxide], in assay [1] (setting [3]), the inhibition in vivo at 100 mg/kg was in the range of 10 to 50%. Besides, the inhibition in vivo in assay [2] was greater than 60%.
As for `Cn1nnnc1SCCCSc1ccccn1` [compound 2], the inhibition in vivo at 100 mg/kg in assay [1] (star-marked compounds, read-out: Inhibitory ratio, pepsin activity) was 30 to 60%; in assay [1] (star-marked compounds, read-out: Inhibitory ratio, total acidity), greater than 60%; in assay [1] (star-marked compounds, read-out: Inhibitory ratio, volume of gastric juice) it was greater than 60%. For the same compound, the inhibition in vivo in assay [2] was greater than 60%.
In the case of `CC(CSc1ccccn1)CSc1nnnn1C` (stereo not drawn) [Test compound 34, 1-Methyl-5-[2-methyl-3-(2-pyridyl)thiopropyl]thio-1,2,3,4-tetrazole], the inhibition in vivo at 100 mg/kg in assay [1] (setting [3]) was greater than 50%. Further, the inhibition in vivo in assay [2] was greater than 60%.
On to `Cn1nnnc1SCCCCCCSc1nnnn1C` [Test compound 36, 1-Methyl-5-[6-(1-methyl-1,2,3,4-tetrazol-5-yl)thiohexyl]thio-1,2,3,4-tetrazole], for which, in assay [1], the “Inhibitory ratio, volume of gastric juice” value was “+ +”. In addition, the inhibition in vivo in assay [2] was greater than 60%.
In the case of `Cc1ncsc1C(=O)CCCSc1nnnn1C` [Test compound 80, 1-Methyl-5-[3-(4-methyl-5-thiazolyl)carbonylpropyl]thio-1,2,3,4-tetrazole], the inhibition in vivo at 100 mg/kg in assay [1] (setting [3]) is greater than 50%. The inhibition in vivo in assay [2] is greater than 60%.
The like results for `Cn1nnnc1SCCCC(=O)c1ccccn1` [Test compound 74, 1-Methyl-5-[3-(2-pyridyl)carbonylpropyl]thio-1,2,3,4-tetrazole] were, in that order, greater than 50% and greater than 60%.
Take `Cn1nnnc1SCCCC(=O)Cc1ccccc1` [Test compound 57, 1-Methyl-5-(3-benzylcarbonylpropyl)thio-1,2,3,4-tetrazole]: the results for the inhibition in vivo at 100 mg/kg in assay [1] (setting [4]), in assay [1] (setting [5]) and in assay [1] (setting [3]) were 10 to 50%, 10 to 50% and greater than 50%, respectively. Also, in assay [2], the inhibition in vivo is greater than 60%.
With `Cn1nnnc1SCCCNC(=O)c1ccccc1` [Test compound 88, 1-Methyl-5-(3-benzoylaminopropyl)thio-1,2,3,4-tetrazole], the inhibition in vivo at 100 mg/kg in assay [1] (setting [3]) was greater than 50%. For the same compound, in assay [2], the inhibition in vivo was greater than 60%.
As to `COc1ccc(CCNC(=O)CCCn2nnnc2C)cc1OC` [Test compound 114, N-[2-(3,4-Dimethoxyphenyl)ethyl]-4-(5-methyl-1,2,3,4-tetrazol-1-yl)butyramide], the inhibition in vivo in assay [2] lay within 30 to 60%.
